Measured values from patent US6608106B2 (Sloan-Kettering Institute for Cancer Research, priority 1997, dated 2003).
Like-named read-outs stand apart in the source and are kept apart here.

Key:
[1] = tested on: murine stroke (right middle cerebral artery occlusion); experiment: Reperfused stroke: reversible (45 minutes) right middle cerebral artery occlusion; assay type: in vivo, C57/6J BL mice; conditions: for cerebral infarct volume (percentage of the ipsilateral hemisphere): 24 hours
Method: (§1) Dithiothreitol (0.1 mmol/L) was then added separately to both DHA and ascorbate prior to use as a reducing agent. For experiments examining the effect of focal cerebal ischemia on the DHA's ability to: (1) cross the blood-brain barrier and, (2) protect cerebral tissue, we employed an intraluminal murine model of reversible (45 minutes) or permanent (24 h) right middle cerebral artery occlusion. (12) Anesthetized normothermic C57/6J BL mice were treated prior to ischemia via penile injection with either high dose DHA (250 mg/kg), low dose DHA (40 mg/kg), ascorbate (250 mg/kg), or sucrose (a non-metabolized, non-transportable marker of plasma volume). All animals underwent transcranial laser doppler measurement of cortical cerebral blood flow perioperatively. […] (11) In contrast, the experimental cohorts were followed for 24 hours and underwent pre-sacrifice neurological examination, as previously described. 13 Infarct volumes were calculated by digital analysis of serial, 2,3,5-triphenyltetrazolium-stained, sections, with volumes expressed as percentage of the ipsilateral hemisphere.^12 There were 67 animals in the reperfusion cohort (including vehicle, 40 mg/kg DHA, 250 mg/kg DHA, and 250 mg/kg ascorbate cohorts) and 54 animals in the nonreperfused cohort (including vehicle, 250 mg/kg DHA, and 250 mg/kg ascorbate cohorts). Comparisons were made between groups with a two-tailed Student t-test for unpaired variable. All studies were performed in accordance with an institutionally approved animal protocol.

[2] = in vivo
[3] = mouse, in vivo; for serum radioactivity concentration: 15 seconds
[4] = Tracer studies of brain accumulation in focal cerebral ischemia; assay type: in vivo, C57/6J BL mice; conditions: ischemic animals, 10 minutes or two hours of focal ischemia
Method: as §1

[5] = tested on: murine stroke (right middle cerebral artery occlusion); experiment: Non-reperfused stroke: permanent (24 h) right middle cerebral artery occlusion; assay type: in vivo, C57/6J BL mice; conditions: 250 mg/kg
Method: as §1
Since clinical therapeutic antioxidant strategies might be employed prior to hospitalization and reperfusion, we examined the effect of high-dose DHA on non-reperfused stroke as well. […] This improved perfusion was associated with similar reductions in infarct volume (51±6% vehicle, 46±6% AA, and 26±5% high-DHA, p<0.01 vs. vehicle), and sacrifice neurological deficit scores (3.0±0.3% vehicle, 3.2±0.4% AA, and 1.9±0.2% high-DHA; p<0.005 for DHA vs. either control). As in the setting of reperfusion, DHA reduced mortality by nearly 50% (50% vehicle, 64% AA, and 30% high-DHA.

[6] = 60 mg daily, human volunteers; cited from earlier work
GLUT1 [7] = target: T1, GLUT1 (Mus musculus, UniProt P17809); conditions: dose-dependent, 30-second time course, mice
T1 sequence (P17809 1-492): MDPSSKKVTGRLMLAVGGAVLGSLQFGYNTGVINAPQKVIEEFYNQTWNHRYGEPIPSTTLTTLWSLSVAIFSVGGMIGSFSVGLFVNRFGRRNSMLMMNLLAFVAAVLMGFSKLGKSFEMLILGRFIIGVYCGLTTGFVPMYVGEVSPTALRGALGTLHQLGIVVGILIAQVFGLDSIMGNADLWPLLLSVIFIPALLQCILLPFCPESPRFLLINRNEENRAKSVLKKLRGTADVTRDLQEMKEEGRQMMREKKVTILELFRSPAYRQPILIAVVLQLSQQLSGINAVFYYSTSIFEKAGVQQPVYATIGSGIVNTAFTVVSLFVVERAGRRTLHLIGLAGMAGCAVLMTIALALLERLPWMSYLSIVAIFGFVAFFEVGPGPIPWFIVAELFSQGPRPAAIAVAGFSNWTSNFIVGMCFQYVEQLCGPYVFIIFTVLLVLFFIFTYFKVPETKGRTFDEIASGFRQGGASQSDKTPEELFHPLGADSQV

[8] = cited from earlier work
[9] = Carotid artery infusion of dehydroascorbic acid: loading of vitamin C into the brain; assay type: in vivo; conditions: 24 mg into carotid artery over forty minutes, rat
Method: An experiment was done in which the carotid artery of a subject rat was cannulated with a catheter and 24 mg of dehydroascorbic acid was injected into the artery. The injected dehydroascorbic acid was spiked with a tracer amount of radioactive (^14C-labeled) dehydroascorbic acid. The dehydroascorbic acid was infused over forty minutes and the brain was harvested. The amount of radioactive vitamin C was quantitated in the brain and total amount of injected vitamin C that accumulated in the brain was thus extrapolated. […] It is of note that the total vitamin C concentration in the normal adult rat brain is approximately 150 μg. A log-fold greater Vitamin C than baseline normal concentration of Vitamin C was thus achieved.

[10] = previous studies (11); cited from earlier work
HL60 cells = conditions: read-out: apparent Km for transport; cited from earlier work
[11] = rat
GLUT1 [12] = target: T2, GLUT1 (Homo sapiens, UniProt P11166); conditions: in vitro data; cited from earlier work
T2 sequence (P11166 1-492): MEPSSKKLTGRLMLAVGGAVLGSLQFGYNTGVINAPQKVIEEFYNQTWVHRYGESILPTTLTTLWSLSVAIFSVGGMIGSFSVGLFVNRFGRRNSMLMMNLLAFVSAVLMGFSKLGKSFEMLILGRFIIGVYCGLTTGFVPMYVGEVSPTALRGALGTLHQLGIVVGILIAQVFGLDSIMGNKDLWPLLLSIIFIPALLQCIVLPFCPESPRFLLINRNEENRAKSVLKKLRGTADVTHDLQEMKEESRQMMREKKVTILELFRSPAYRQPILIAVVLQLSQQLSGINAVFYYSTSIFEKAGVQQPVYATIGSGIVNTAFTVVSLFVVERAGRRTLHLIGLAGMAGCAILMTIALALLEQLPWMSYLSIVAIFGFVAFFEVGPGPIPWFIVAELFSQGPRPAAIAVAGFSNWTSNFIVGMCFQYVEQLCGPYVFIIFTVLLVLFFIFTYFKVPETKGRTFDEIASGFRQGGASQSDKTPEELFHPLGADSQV

[13] = low dose 40 mg/kg pre-treatment

Compound	neurological deficit score ([1]; 250 mg/kg pre-treatment)	overall mortality ([1]; 250 mg/kg pre-treatment) [%]	post-ischemic cerebral perfusion ([1]; 250 mg/kg pre-treatment) [%]	cerebral infarct volume (percentage of the ipsilateral hemisphere) ([1]; 250 mg/kg pre-treatment) [%]	radioactivity found in the brain, percent of injected dose (ID) per gram of brain tissue [2]	maximum brain accumulation ([3]; Balb/c, iv) [% ID/gram brain tissue]	serum radioactivity concentration ([3]; Balb/c, iv) [% ID/gram serum]	accumulation, percent of injected dose (TD) per gram of brain tissue [4]	infarct volume [5] [%]	mortality [5] [%]	pre-sacrifice regional cerebral cortical perfusion [5] [%]	inhibition of uptake of dehydroascorbic acid in the brain (GLUT1 [7])	Km (HL60 cells) [µM]	calculated BBB permeability-surface area product (PS) [11] [μl/min/gm brain tissue]	also measured
O=C1O[C@H]([C@@H](O)CO)C(O)=C1O [ascorbic acid, L-[1-^14C]-ascorbic acid, reference compound]	2.7±0.7	50	13±1	58±4	only trace radioactivity	0.4	27	only trace levels	46±6	64	15±3	–	–	–	brain radioactivity ([3]; Balb/c, iv, 2 hours): 1.1 % ID/gram brain tissue; transport into the brain [3]: no measurable transport; steady-state plasma concentration [6]: approximately 24 μM
O=C[C@@H](O)[C@H](O)[C@@H](O)[C@@H](O)CO [L-glucose]	–	–	–	–	–	–	–	–	–	–	–	no effect	–	–	–
OC[C@H]1O[C@@](CO)(O[C@H]2O[C@H](CO)[C@@H](O)[C@H](O)[C@H]2O)[C@@H](O)[C@@H]1O [sucrose, [fructose-1-^3H]-sucrose]	–	–	–	–	only trace radioactivity	0.4	–	only trace levels	–	–	–	–	–	–	brain radioactivity ([3]; Balb/c, iv, 15 min): < 0.1%
O=C1O[C@H]([C@@H](O)CO)C(=O)C1=O [dehydroascorbic acid]	1.9±0.2	27	40±4	12±4	–	–	8	~4%	26±5	30	30±3	–	850	136±12	neurological deficit score [1, 13]: 1.6±0.2; overall mortality [1, 13]: 24%; post-ischemic cerebral perfusion [1, 13]: 28±2%; cerebral infarct volume (percentage of the ipsilateral hemisphere) [1, 13]: 22±4%; radioactivity found in the brain, percent of injected dose (ID) per gram of brain tissue ([2]; Balb/c (mouse), Fischer F344 (rat), mouse and rat, 3 min): Approximately 4%; brain radioactivity, maximum ([3]; Balb/c, iv): 4.3 % of ID/gram brain tissue; brain radioactivity ([3]; Balb/c, iv, 25 min): 3.3%; stability ([8]; aqueous solution): hydrolyses easily; stability ([8]; low pH conditions): stable; amount of vitamin C accumulated in the brain [9]: 2.6 mg; vitamin C accumulated in the brain as share of injected dose [9]: approximately 11%; reduction of mortality ([5]; vs. controls): ~50%; form of vitamin C accumulating in the brains of DHA-injected animals that is ascorbic acid [10]: > 85%
CC(C)C[C@H](N)C(=O)O [leucine]	–	–	–	–	–	–	–	–	–	–	–	no effect	–	–	–
O=CC[C@@H](O)[C@H](O)[C@H](O)CO [D-deoxyglucose, 2-Deoxy-D-glucose, reference compound]	–	–	–	–	–	–	–	–	–	–	–	–	2500	44±3.2	concentration necessary to block the transport of dehydroascorbic acid through GLUT1 (GLUT1 [12]): greater than 50 mM
